# Experimental data reported in patent US20090186942A1, “NOVEL NUTRACEUTICAL AND PHARMACEUTICAL COMPOSITIONS AND USE THEREOF FOR THE TREATMENT, CO-TREATMENT OR PREVENTION OF INFLAMMATORY DISORDERS” (priority 2006, published 2009).
# What was measured:
# Assay type in all cases: cell-based
# [1] = tested on: murine macrophage indicator cell line, RAW267.4; experiment: Inhibition of nitric oxide production in LPS-stimulated macrophages (Griess reaction); details: single substances, RAW267.4 cells, LPS 1 μg/ml, 24 hours
# Experimental: (§1) Pure substances were then further assayed in vitro in cellular cell systems. The inhibition of the synthesis of nitric oxide and/or pro-inflammatory prostaglandins (PG) by the compounds was measured. PGE2 plays a critical role in the inflammation process, while nitric oxide (NO) is a hallmark of inflammation in various chronic inflammatory diseases including various forms of arthritis, gastro-intestinal diseases and metabolic syndrome X. The effects of compounds on the inflammatory response were tested in cellular assays using a murine macrophage indicator cell line, RAW267.4. The cells were purchased from ATCC (Manassas, Va., USA) and cultured in DMEM containing streptomycin/penicillin, non-essential amino acids and 10% fetal calf serum (FCS). In order to test a large range of concentration of compounds, cells (˜50,000/well) were seeded into flat-bottomed microtiter plates and cultured for one day. Cells were then starved in complete medium containing 0.25% FCS (D-025). After overnight culture, medium was removed and replaced by 100 μL of D-025 containing the test compounds at twice the final concentration. Subsequently, 100 μL of D-025 containing 2 μg/ml LPS was added (i.e. final LPS concentration of 1 μg/ml) and the cells cultured for 24 hours.
# (§2) Substances were tested in a concentration range from 0.2 to 50 μM in two-fold dilution steps. Extracts were tested from 0.2 to 50 mg/L. All treatments were done in duplicates and several experimental series were done for each treatment. Concentrations of nitrite which was rapidly formed from nitric oxide released by cells were determined by the Griess reaction using sodium nitrite as standard. Briefly, 50 μl of supernatant was mixed with Griess reagent 1 (25 μL) and Griess reagent 2 (25 μL), centrifuged and the optical density at 540 nm determined. PGE2 secreted into the cell culture medium was determined by EIA obtained from Cayman Chemicals (Ann Harbor, […]., USA) and used according to the manufacturer's instructions. All determinations were done in duplicates and at various dilutions of the culture supernatant. IC50 values were calculated using a […] least-square fitting equation [y=A+((B−A)/(1+((C−x)̂D))] for best-fit curves (Excel fit software program).
# [2] = tested on: murine macrophage indicator cell line, RAW267.4; experiment: Inhibition of PGE2 production in LPS-stimulated macrophages (EIA); details: single substances, RAW267.4 cells, LPS 1 μg/ml, 24 hours
# Experimental: as §1, §2
# TNF-α = experiment: Expression of inflammatory genes by quantitative RT-PCR: TNF-α; details: RAW 264.7 cells, 4 hours
# Experimental: (§3) The effect of the compounds has been evaluated on the level of the expression of genes that are involved in the inflammatory response. These comprise e.g. the following genes TNF-α, IL-6, MIP1β and NF-κB1 and NF-κBp49, the latter two of which are transcription factors involved in the regulation of inflammatory gene expression. After 4 hours, RNA was extracted and the expression of genes determined by quantitative RT-PCR as described (Richard, N., Porath, D., Radspieler, A. and Schwager, J. Effects of resveratrol, piceatannol, tri-acetoxystilbene, and genistein on the inflammatory response of human peripheral blood leukocytes. Mol Nutr Food Res 2005. 49: 431-442).
# IL-6 = experiment: Expression of inflammatory genes by quantitative RT-PCR: IL-6; details: RAW 264.7 cells, 4 hours
# Experimental: as §3
# [3] = tested on: macrophage inflammatory protein 1 [MIP-1]; experiment: Expression of inflammatory genes by quantitative RT-PCR: MIP-1; details: RAW 264.7 cells, 4 hours
# Experimental: as §3
# NF-κB1 = experiment: Expression of inflammatory genes by quantitative RT-PCR: NF-κB1; details: RAW 264.7 cells, 4 hours
# Experimental: as §3
# NF-κBp49 = experiment: Expression of inflammatory genes by quantitative RT-PCR: NF-κBp49; details: RAW 264.7 cells, 4 hours
# Experimental: as §3
compound,measurement,setting,value
CCC/C=C\C/C=C\CCCCCCCc1cccc(O)c1C(=O)O [(15:2)-Anacardic acid],IC50,[1],82.4 ± 6.7 µM
same,IC50,[2],43.1 ± 5.5 µM
C=CC/C=C\C/C=C\CCCCCCCc1cccc(O)c1C(=O)O [(15:3)-Anacardic acid],IC50,[1],7.4 ± 0.4 µM
same,IC50,[2],26.6 ± 21.1 µM
same,% expression TNF-α mRNA relative to cells stimulated with LPS only,TNF-α; 6.25 μM/L,76%
same,% expression TNF-α mRNA relative to cells stimulated with LPS only,TNF-α; 12.5 μM/L,54%
same,Effect on TNF-α expression (in words),TNF-α,significantly reduced
same,% expression IL-6 mRNA relative to cells stimulated with LPS only,IL-6; 6.25 μM/L,65%
same,% expression IL-6 mRNA relative to cells stimulated with LPS only,IL-6; 12.5 μM/L,71%
same,% expression MIP-1-α mRNA relative to cells stimulated with LPS only,[3]; 6.25 μM/L,58%
same,% expression MIP-1-α mRNA relative to cells stimulated with LPS only,[3]; 12.5 μM/L,41%
same,Effect on MIP-1β expression (in words),[3],significantly reduced
same,% expression NF-κB1 mRNA relative to cells stimulated with LPS only,NF-κB1; 6.25 μM/L,86%
same,% expression NF-κB1 mRNA relative to cells stimulated with LPS only,NF-κB1; 12.5 μM/L,78%
same,% expression NF-κBp49 mRNA relative to cells stimulated with LPS only,NF-κBp49; 6.25 μM/L,74%
same,% expression NF-κBp49 mRNA relative to cells stimulated with LPS only,NF-κBp49; 12.5 μM/L,57%
C=CC/C=C\C/C=C\CCCCCCCc1cc(O)cc(O)c1 [Cardoltriene],IC50,[1],4.9 ± 0.8 µM
same,IC50,[2],0.9 ± 0.2 µM
"O=C(O[C@@H]1Cc2c(O)cc(O)cc2O[C@@H]1c1cc(O)c(O)c(O)c1)c1cc(O)c(O)c(O)c1 [EGCG, reference compound]",IC50,[1],33 ± 2 µM
same,IC50,[2],35 µM
"CCCCCC/C=C\CCCCCCCc1cccc(O)c1C(=O)O [Ginkoic acid, Ginkgoic acid]",IC50,[1],> 100 µM
same,IC50,[2],57.8 µM
"Oc1ccc(C=Cc2cc(O)cc(O)c2)cc1 [Resveratrol, reference compound]",IC50,[1]; Mus musculus,31 ± 2 µM
same,IC50,[2]; Mus musculus,24 ± 2 µM
